The source of these data is ChEMBL document CHEMBL1137215, “A 4'-C-ethynyl-2',3'-dideoxynucleoside analogue highlights the role of the 3'-OH in anti-HIV active 4'-C-ethynyl-2'-deoxy nucleosides” (J Med Chem, 2004).

Usually IC50 stands for the point on the concentration scale where inhibition reaches its midpoint. Low values mean inhibition by little substance, high ones a need for much substance.

Assay [1] concerns MT4. The assay is described as follows: Inhibitory concentration of compound against HIV LAI in MT-4 cells when tested at a range of 0.001-10 uM concentration. To be noted: Homo sapiens. The class given is functional, cell-based.
Assay [2] relates to MT2. Nature of the assay: Inhibitory concentration of compound against HIV LAI in MT-2 cells when tested at a range of 0.001-10 uM concentration. The class given is functional, cell-based. To be noted: Homo sapiens.
The test system of assay [3] is MT2. The assay is described as follows: Inhibitory concentration against HIV LAI in MT-2 cells when tested at a range of 0.001-10 uM concentration; Inactive. It counts as functional, cell-based, Homo sapiens.
In assay [4] the test system is MT4. Nature of the assay: Inhibitory concentration against HIV LAI in MT-4 cells when tested at a range of 0.001-10 uM concentration; Inactive. It counts as functional, cell-based, Homo sapiens.

Turning to `CC(C)c1nc(CN(C)C(=O)N[C@H](C(=O)N[C@@H](Cc2ccccc2)C[C@H](O)[C@H](Cc2ccccc2)NC(=O)OCc2cncs2)C(C)C)cs1` [RITONAVIR], the IC50 in the assay with MT4 [1] and in the assay on MT2 [2] was 10 nM throughout.
As for `C#C[C@@]1(CO)CCC(n2ccc(N)nc2=O)O1` (some centres undefined), the IC50 result with MT2 [3] and with MT4 [4] was “Not Active” throughout.
